Data on twelve compounds can be found in US20090298786A1, “METHODS OF TREATING VIRAL INFECTIONS WITH ANTHRACYCLINE ANTIBIOTICS” (priority 2007, published 2009).

The target of data set [1] is T1, HCV helicase (helicase domain of NS3 protein) (UniProt P27958).
T1 construct: The helicase domain of NS3 protein was expressed in a baculovirus system in HF insect cell line; fused on or other part: Histidine tag, inferred from the Talon cobalt column purification ('histidine repetitions')
Kind of data set: Fluorometric (FRET) antihelicase activity assay. The format is biochemical, hepatitis C virus (HCV). The following applies: concentration inhibiting 50% of helicase activity; 10 nM enzyme pre-incubated 15 min with derivative, unwinding at 30° C. for 60 min; read-out: IC50. The text has this: A reaction takes place on a 96- or 384-well microtitration plate and a course of the reaction is observed in real time.
The helicase domain of NS3 protein was expressed in a baculovirus system in HF insect cell line.
In this assay, FAM fluorescence is quenched by fluorescence energy transfer (FRET) to the BHQ molecule, while unwinding of double-stranded DNA structure leads to decrease of FRET phenomenon and increase of FAM fluorescence signal. The assay allows for examining a large number of samples, i.e., different helicase inhibitors at various concentrations and with many repetitions, in standardized conditions. The reaction is conducted in a microtitration plate. The reaction process is observed in real time.
The enzyme (10 nM) was pre-incubated with the tested derivatives dissolved in DMSO (0.005 to 20 μM concentration) without ATP for 15 min at room temperature. The reaction of DNA unwinding was started by addition of ATP and was carried out at 30° C. for 60 min in a Synergy HTi (Biotek) fluorometer. […] Fluorescence was measured every 2 mins.
The enzyme activity was calculated as the initial reaction velocity from the linear part of reaction curve (fluorescence growth as a function of time) using a linear regression method. Inhibition was calculated as comparison of activity of the helicase incubated with inhibitor to activity of the helicase incubated without inhibitor, but with a proper concentration of DMSO, expressed in percent.

Data set [2] deals with subgenomic HCV genotype 1 (con 1) replicon. Kind of data set: Antiviral activity, subgenomic HCV replicon luciferase test in Huh-7 cells. The class given is cell-based, hepatitis C virus. How it is done: Studies on inhibition of HCV replication, using human liver cancer cell line (Huh7) carrying a subgenomic HCV replicon of genotype 1 (con1) with a reporter/selection fusion protein luc-ubi-neo, were also carried out.
In order to examine antiviral activity and to determine therapeutic index of exemplary anthracycline antibiotics, subgenomic replicon of hepatitis C virus was used, which is a modified genome of HCV lacking structural genes. The replicon was a non-infective form of the virus, and therefore is safe to work with and makes it easier for high-throughput screening of potential inhibitors of its replication.
Additional simplification was the use of reporter protein—luciferase, whose activity (i.e., luminescence generated by it after addition of substrate) was proportional to the amount of the protein expressed, which allowed determination of HCV RNA replication level and its inhibition by virus replication inhibitors.
The human hepatoma cell line Huh-7 and the plasmid pFK-luc-ubi-neo/NS3-3′/Con1/5.1 carrying the subgenomic HCV genotype 1 (con 1) replicon with the luc-ubi-neo reporter/selective fusion protein (Vrolijk J. M. et al., J. Virol. Methods 110: 201-209, 2003), used in the experiments, were provided by Dr. Ralf Bartenschlager (Department of Molecular Virology, University of Heidelberg, Heidelberg). Huh-7 clones carrying persistently-replicating subgenomic HCV replicons were obtained using the following modification of the protocol described by Lohman V. et al. (J. Virol. 75:1437-1449, 2001).
(§1) Huh-7 cells were grown in minimal essential medium (Dulbecco's Modified Minimal Essential Medium, DMEM; Invitrogen) with high glucose concentration (4.5 g/L) supplemented with 2 mM L-glutamine and 1 μM non-essential amino acids, such as: glycine, L-alanine, L-asparagine, L-aspartic acid, L-glutamic acid, L-proline and L-serine, and also with 100 U/mL penicilin, 100 μg/mL streptomycin, and 10% fetal bovine serum (FBS, Sigma). In cultures of cells bearing the subgenomic HCV replicon 250 μg/mL of aminoglycoside antibiotics G418 (Geneticin; Invitrogen) was added to the medium. Cells were grown at 37° C. (5% CO2) and were passaged twice per week, diluted 7 to 10 times, according to the protocol described in Vrolijk J. M. et al., J. Virol. Methods 110:201-209, 2003.
(§2) The Huh-7 cells carrying replicons were cultivated with the following concentrations of anthracycline antibiotics: 5 to 200 nM for 4 days to determine their influence on HCV RNA replication and 5 to 5000 nM for 3 days to determine cytotoxicity. The medium with 1% DMSO was used as a control.
Conditions of the antiviral activity test of antracycline antibiotics were based on the protocol described by Paeshuyse J. et al. (Biochem. Biophys. Res. Commun. 348: 139-144, 2006). A logarithmic culture of HCV replicon-carrying cells was diluted in complete DMEM medium supplemented with 250 μg/ml G418 to the concentration of 5-7×10^3 cells per mL and aliquoted into 96-well white microtitration plate with optical bottom (Nunc) (100 μL per well). After 24 h at 37° C. the medium was removed and dilution of inhibitors in the range of 5 to 200 nM was added in 100 μL of fresh DMEM medium without G418. Huh-7 cells with 1% DMSO were used as a control. After 4 days at 37° C., the medium was removed and 40 μL of mixture of Glo Lysis buffer and Bright-Glo luciferase assay system (Promega) was added to each well. After 2 mins of incubation luminescence was measured with a Synergy HTi (Biotek) device. The experiment was repeated at least three times with three repetitions for each inhibitor concentration.

For data set [3], the target named is helicase. The following applies: Borowski P. et al., Antiviral Res. 55, 397-412, 2002; read-out: IC50 (antihelicase activity); cited from earlier work.
Data set [4] relates to Huh-7 cells carrying replicons. Kind of data set: Cytotoxicity (MTT) in HCV replicon-carrying Huh-7 cells. To be noted: Huh-7 replicon cells, 3 days, MTT, cell growth inhibited by 50%. How it is done: as §1, §2
(§3) When determining cytotoxicity, as in the antiviral test, logarithmic culture of HCV replicon-carrying cells was diluted in complete DMEM medium supplemented with 250 μg/mL G418 to the concentration of 5−7×10^3 cells per mL and aliquoted into 96-well mictotitration cell culture plate (100 μL per well). After 24 h at 37° C. medium was removed and inhibitors were added at concentrations of 5 to 5000 nM in 100 μL of fresh DMEM medium without G418. After 3 days at 37° C., the medium was removed and 100 μL of fresh DMEM medium with 0.5 mg/mL of MTT (tetrazolium bromide, Sigma) was added to each well. After 3 to 4 hours of incubation at 37° C., the medium with MTT was removed and 100 μL of 0.04 N HCl solution in absolute isopropanol was added to solubilize the precipitated dye. Dye absorbance was measured at 570 nm, while absorbance of the background was measured at 650 nm using Synergy HTi (Biotek). The experiment was repeated at least 3 times with 3 repetitions for each inhibitor concentration.

Assay in data set [5]: as above
To be noted: human, Huh-7 cells carrying subgenomic HCV replicon. How it is done:
as §1, §2, §3

[6] abbreviates: Hepatitis C virus, Huh-7, 96 h, Huh-7 replicon cells, 4 days, luminescence reduced by 50%.
[7] abbreviates: Huh-7 replicon cells, 4 days, luminescence reduced by 50%, read-out: EC50.

Read-outs that look alike come from different tables or passages of the source.

T1 sequence (P27958 1027-1657): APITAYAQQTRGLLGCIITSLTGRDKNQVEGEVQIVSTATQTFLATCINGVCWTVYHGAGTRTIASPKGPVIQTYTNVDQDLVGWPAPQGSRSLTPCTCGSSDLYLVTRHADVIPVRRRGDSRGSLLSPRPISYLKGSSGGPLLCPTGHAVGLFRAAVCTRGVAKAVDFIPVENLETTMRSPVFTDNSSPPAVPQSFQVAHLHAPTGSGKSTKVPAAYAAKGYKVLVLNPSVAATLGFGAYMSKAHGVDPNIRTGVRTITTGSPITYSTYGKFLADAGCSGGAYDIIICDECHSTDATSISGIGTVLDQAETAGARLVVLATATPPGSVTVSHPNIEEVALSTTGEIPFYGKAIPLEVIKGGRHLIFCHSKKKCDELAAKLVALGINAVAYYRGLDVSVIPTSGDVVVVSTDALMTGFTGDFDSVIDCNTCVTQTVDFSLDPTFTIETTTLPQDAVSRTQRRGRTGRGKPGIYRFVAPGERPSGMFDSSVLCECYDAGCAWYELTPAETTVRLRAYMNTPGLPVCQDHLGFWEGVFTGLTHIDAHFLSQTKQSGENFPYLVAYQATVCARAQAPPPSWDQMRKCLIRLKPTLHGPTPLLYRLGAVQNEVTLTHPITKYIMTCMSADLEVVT

With `COc1cccc2c1C(=O)c1c(O)c3c(c(O)c1C2=O)C[C@@](O)(C(C)=O)C[C@@H]3O[C@H]1C[C@H](N)[C@H](O)[C@H](C)O1` [Daunorubicin, reference compound], the IC50 was 6050 nM in data set [1] and 57000 nM in data set [3]. Moreover, in data set [2] (setting [6]), the EC50 worked out at 31.2 nM.
Consider `COc1cccc2c1C(=O)c1c(O)c3c(c(O)c1C2=O)CC(O)(C(=O)CO)CC3OC1CC(N=C(C)N2CCOCC2)C(O)C(C)O1` (stereo not drawn) [Derivative 54], for which, in data set [1], the IC50 was determined as 510 nM. Besides, the EC50 in data set [2] (setting [7]) was 129 nM. Besides, in data set [4], the CC50 was determined as 4280 nM.
Regarding `COc1cccc2c1C(=O)c1c(O)c3c(c(O)c1C2=O)CC(O)(C(C)=O)CC3OC1CC(N=CN2CCCCCC2)C(O)C(C)O1.Cl` (stereo not drawn) [Derivative 75], the IC50 in data set [1] turned out to be 2330 nM. Also, in data set [2] (HCV replicon), the “activity (EC50) fold higher than that of epidoxorubicin, doxorubicin, epidaunorubicin, or daunorubicin” value is 4 fold. Also, the EC50 in data set [2] (setting [7]) is 8.4 nM. The CC50 in data set [4] is 47.9 nM.
As to `COc1cccc2c1C(=O)c1c(O)c3c(c(O)c1C2=O)CC(O)(C(C)=O)CC3OC1CC(N=C(C)N2CCN(C)CC2)C(O)C(C)O1` (stereo not drawn) [Derivative 94], the IC50 in data set [1] was found to be 80 ± 20 nM. Moreover, the EC50 in data set [2] (setting [6]) turned out to be 56.9 nM. Besides, the CC50 at 3 days in data set [5] was 1090 nM.
As to `COc1cccc2c1C(=O)c1c(O)c3c(c(O)c1C2=O)CC(O)(C(=O)CO)CC3OC1CC(N=C(C)N2CCOCC2)C(O)C(C)O1` (stereo not drawn) [Derivative 125], in data set [1], the IC50 worked out at 290 nM. In addition, the EC50 in data set [2] (setting [7]) was 114 nM. Besides, in data set [4], the CC50 was determined as 909 nM.
The matching figures for `COc1cccc2c1C(=O)c1c(O)c3c(c(O)c1C2=O)CC(O)(C(=O)CO)CC3OC1CC(N=C(C)N2CCc3ccccc32)C(O)C(C)O1` (stereo not drawn) [Derivative 133]: 380 nM, 138 nM and 1570 nM.
For the compound `COc1cccc2c1C(=O)c1c(O)c3c(c(O)c1C2=O)C[C@@](O)(C(=O)CO)C[C@@H]3O[C@H]1C[C@H](N)[C@H](O)[C@H](C)O1` [Doxorubicin, reference compound], the EC50 was 31.2 nM in data set [2] (setting [6]) and 42.9 nM in data set [2] (Huh-7 replicon cells, 4 days, luminescence reduced by 50%). Moreover, in data set [5], the CC50 at 3 days is 332 nM. The IC50 in data set [3] was 5000 nM.
For the compound `COc1cccc2c1C(=O)c1c(O)c3c(c(O)c1C2=O)C[C@@](O)(C(C)=O)C[C@@H]3O[C@H]1C[C@H](N)[C@@H](O)[C@H](C)O1` [Epidaunorubicin, reference compound], the IC50 in data set [1] worked out at 3730 nM. In data set [2] (setting [7]), the EC50 came out at 31.2 nM.
As for `COc1cccc2c1C(=O)c1c(O)c3c(c(O)c1C2=O)C[C@@](O)(C(=O)CO)C[C@@H]3O[C@H]1C[C@H](N)[C@@H](O)[C@H](C)O1` [Epidoxorubicin, reference compound], the CC50 at 3 days in data set [5] is 675 nM. Further, the IC50 in data set [3] was 750 nM.
Turning to `O=C1c2c(O)ccc(O)c2C(=O)c2c(NCCNCCO)ccc(NCCNCCO)c21` [mitoxantrone], the half-maximal inhibitory concentration (IC50) in data set [3] was 6700 nM.
For the compound `COC(=O)[C@@H]1c2cc3c(c(O)c2[C@@H](O[C@@H]2O[C@@H](C)[C@H](OC)[C@@](C)(OC)[C@H]2OC)C[C@]1(C)O)C(=O)c1c(O)cc2c(c1C3=O)O[C@@H]1O[C@@]2(C)[C@H](O)[C@@H](N(C)C)[C@@H]1O` [nogalamycin], the IC50 in data set [3] is 100 nM.
On to `NC(=O)c1ncn([C@@H]2O[C@H](CO)[C@@H](O)[C@H]2O)n1` [ribavirin, reference compound], for which the EC50 in data set [2] (Hepatitis C virus, Huh-7, ribavirin, comparison drug) was determined as 120000 nM.
